Common to all, as to assay: ≥ marks a high value that may be exact or a test limit, other limits are often not marked, values filed in µg/mL are converted to µM
The test system of test [1] is Escherichia coli 1342.
For test [2], the system named is Staphylococcus aureus 1303.
Test [3] relates to Pseudomonas aeruginosa 1413.
The subject of test [4] is Staphylococcus aureus ATCC 2592.
Test [5] relates to Escherichia coli 1334.
Test [6] has as its system Candida glabrata 0902.
Test [7] has as its system Staphylococcus aureus.
Test [8] concerns Candida albicans ATCC 2002.
Test [9] relates to Cutibacterium acnes ATCC 11827.
The subject of test [10] is Pseudomonas aeruginosa 1411.
Test [11] relates to Escherichia coli ATCC 25922.
The subject of test [12] is Pseudomonas aeruginosa 1412.
Test [13] concerns Staphylococcus epidermidis.
Test [14] concerns Staphylococcus aureus 1349.
Test [15] concerns Pseudomonas aeruginosa ATCC 27853.
The test system of test [16] is Staphylococcus aureus ATCC 29213.
Test [17] has as its system Candida albicans ATCC 37092.
The test system of test [18] is Klebsiella pneumoniae M9491.
Test [19] has as its system Acinetobacter sp. M13523.
Test [20] concerns Staphylococcus epidermidis M2923.
Test [21] relates to Escherichia coli M9209.
The subject of test [22] is Acinetobacter sp. M9013.
The test system of test [23] is Enterococcus faecalis M6983.
Test [24] deals with Enterococcus faecalis M4899.
Test [25] has as its system Escherichia coli M7859.
In test [26] the test system is Acinetobacter sp. M5949.
Test [27] relates to Staphylococcus haemolyticus M2976.
For test [28], the system named is Staphylococcus cohnii.
Test [29] has as its system Klebsiella pneumoniae PFAV 3.
Test [30] relates to Enterococcus faecalis ATCC 29212.
Test [31] deals with Escherichia coli M9884.
Test [32] relates to Staphylococcus hominis M2973.
Test [33] relates to Staphylococcus warneri.
Test [34] concerns Staphylococcus hominis M2967.
The test system of test [35] is Enterococcus faecium M2304.
For test [36], the system named is Escherichia coli M5306.
The test system of test [37] is Staphylococcus epidermidis M2921.
For test [38], the system named is Klebsiella pneumoniae M5825.
The subject of test [39] is Staphylococcus aureus P33.
Test [40] relates to Staphylococcus aureus ATCC 25923.
Test [41] deals with Pseudomonas aeruginosa PACO12.
Test [42] has as its system Pseudomonas aeruginosa M11005.
For test [43], the system named is Enterococcus faecalis ATCC 51299.
In test [44] the test system is Acinetobacter sp. M9665.
Test [45] relates to Klebsiella pneumoniae M11245.
The test system of test [46] is Staphylococcus aureus M6784.
In test [47] the test system is Enterococcus gallinarum M2723.
In test [48] the test system is Klebsiella pneumoniae M9375.
Test [49] deals with Enterococcus faecium PZAP 95.
For test [50], the system named is Staphylococcus saprophyticus M4070.

Converted amounts (≈) assume the structure as drawn. Some results are limits rather than exact numbers.

On to `CC[C@H](C)[C@H](NC(=O)[C@H](Cc1cnc[nH]1)NC(=O)[C@H](CO)NC(=O)CNC(=O)[C@H](CO)NC(=O)CNC(=O)[C@@H](NC(=O)[C@H](CO)NC(=O)[C@H](CCCN=C(N)N)NC(=O)[C@H](CC(C)C)NC(=O)[C@H](CCCCN)NC(=O)[C@H](CCC(N)=O)NC(=O)[C@H](CCCCN)NC(=O)[C@H](CC(C)C)NC(=O)[C@H](CCC(N)=O)NC(=O)[C@@H]1CSSC[C@H](NC(=O)[C@H](CCCCN)NC(=O)CN)C(=O)N[C@@H](CC(N)=O)C(=O)N[C@@H](C(C)C)C(=O)N[C@@H](CC(C)C)C(=O)N1)[C@@H](C)CC)C(=O)NCC(=O)N[C@@H](CO)C(=O)N[C@H](C(=O)N[C@H](C(=O)N[C@@H](CC(C)C)C(=O)N1CCC[C@H]1C(=O)N[C@@H](CCCN=C(N)N)C(=O)NCC(=O)O)C(C)C)C(C)C` [GKCNVLCQLKQKLRSIGSGSHIGSVVLPRG], for which the MIC is 9.08 µM (≈ 28.5 µg/mL) in test [1]; 4.54 µM (≈ 14.2 µg/mL) in test [2]; 4.54 µM (≈ 14.2 µg/mL) in test [3]; 2.27 µM (≈ 7.11 µg/mL) in [4]; 4.54 µM (≈ 14.2 µg/mL) in [5]; 4.54 µM (≈ 14.2 µg/mL) in [6]. Also, the MIC in test [7] is 2.27 µM (≈ 7.11 µg/mL); in test [8] it was 1.13 µM (≈ 3.54 µg/mL); in [9], 18.2 µM (≈ 57 µg/mL); in test [10], 4.54 µM (≈ 14.2 µg/mL); in test [11], 2.27 µM (≈ 7.11 µg/mL); in test [12], 9.08 µM (≈ 28.5 µg/mL). The minimal inhibitory concentration (MIC) in test [13] amounted to 4.54 µM (≈ 14.2 µg/mL); in [14] it was 9.08 µM (≈ 28.5 µg/mL); in test [15] it was 4.54 µM (≈ 14.2 µg/mL).
Regarding `CC[C@H](C)[C@H](NC(=O)[C@H](CCCN=C(N)N)NC(=O)[C@@H](N)CCCN=C(N)N)C(=O)N[C@@H](CCCN=C(N)N)C(=O)N1CCC[C@H]1C(=O)N[C@@H](CCCN=C(N)N)C(=O)N1CCC[C@H]1C(=O)O` [RRIRPRP], the values for the minimum inhibitory concentration (MIC) in test [16], in test [11] and in test [17] were > 500 µM, > 500 µM and ≥ 500 µM, respectively.
For `CC[C@H](C)[C@H](NC(=O)[C@H](CCCN=C(N)N)NC(=O)[C@H](CCC(N)=O)NC(=O)[C@@H](NC(=O)[C@@H](NC(=O)[C@@H](N)CCCN=C(N)N)[C@@H](C)CC)C(C)C)C(=O)N[C@@H](CCCCN)C(=O)N[C@@H](CCCCN)C(=O)N[C@@H](Cc1c[nH]c2ccccc12)C(=O)N[C@@H](CC(C)C)C(=O)N[C@@H](CC(C)C)C(=O)N[C@@H](CCCCN)C(=O)N[C@@H](Cc1c[nH]c2ccccc12)C(=O)N[C@@H](CCCCN)C(=O)N[C@@H](CCCCN)C(=O)N[C@@H](CC(C)C)C(=O)NCC(=O)N[C@@H](Cc1ccc(O)cc1)C(N)=O` [RIVQRIKKWLLKWKKLGY], the minimum inhibitory concentration (MIC) was 27.2 µM (≈ 64 µg/mL) in test [18]; 27.2 µM (≈ 64 µg/mL) in test [19]; 6.79 µM (≈ 16 µg/mL) in test [20]; ≥ 54.3 µM in [21]; 13.6 µM (≈ 32 µg/mL) in [22]; ≥ 54.3 µM in test [23]. The MIC was ≥ 109 µM in [24]; 6.79 µM (≈ 16 µg/mL) in test [25]; ≥ 109 µM in test [26]; 3.39 µM (≈ 8 µg/mL) in [27]; 3.39 µM (≈ 8 µg/mL) in test [28]; ≥ 54.3 µM in test [29]. In addition, the MIC is 54.3 µM (≈ 128 µg/mL) in test [30]; 13.6 µM (≈ 32 µg/mL) in [31]; 1.7 µM (≈ 4 µg/mL) in [32]; 3.39 µM (≈ 8 µg/mL) in [33]; 13.6 µM (≈ 32 µg/mL) in [11]; 3.39 µM (≈ 8 µg/mL) in [34]. Also, the MIC stood at 3.39 µM (≈ 8 µg/mL) in [35]; 27.2 µM (≈ 64 µg/mL) in [36]; 3.39 µM (≈ 8 µg/mL) in test [37]; 13.6 µM (≈ 32 µg/mL) in test [38]; 27.2 µM (≈ 64 µg/mL) in test [39]; 27.2 µM (≈ 64 µg/mL) in [15]. Besides, the MIC in test [40] is 13.6 µM (≈ 32 µg/mL); in [41] it was 27.2 µM (≈ 64 µg/mL); in test [42] it was ≥ 54.3 µM; in test [43], ≥ 109 µM; in [44] it was ≥ 54.3 µM; in [45], 3.39 µM (≈ 8 µg/mL). Besides, the minimum inhibitory concentration (MIC) in test [46] turned out to be 13.6 µM (≈ 32 µg/mL); in test [47], 6.79 µM (≈ 16 µg/mL); in test [48] it was 6.79 µM (≈ 16 µg/mL); in [49], 6.79 µM (≈ 16 µg/mL); in test [50], 3.39 µM (≈ 8 µg/mL).

The MIC is the smallest concentration in the dilution series that meets the test's criterion for growth inhibition. Lower therefore signals a more susceptible organism.

Source of the values: DBAASP.
